Calls of active or inactive are those of the source.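 Rule for the calls: active = compounds giving half or more protection of infected cells from virus-caused growth loss, again on retest; inactive = the rest.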 Where a SMILES comes first, the peptide text is derived from it. [ ]: non-standard residue; d: D form. The star is where a group is joined. ξ: configuration not given here. ξW = NC(Cc1c[nH]c2ccccc12)C(=O)O; X18 = O=C(O)[C@H]1CCC[C@H]1N*; ξF = NC(Cc1ccccc1)C(=O)O; Boc = CC(C)(C)OC(=O)*; ξK = NCCCCC(N)C(=O)O; ξT = CC(O)C(N)C(=O)O; tBu = CC(C)(C)*

For the experiment, the system named is CEM cells HIV-1 protection, formazan growth assay. In words: NCI AIDS Antiviral Assay. The following applies: for IC50: measured here: growth of uninfected CEM cells. Summed up: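 Human CEM cells, uninfected and HIV-1-infected, exposed to five drug concentrations; growth measured by soluble formazan assay and scored as percent protection from infection, with protecting compounds retested.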

Consider `CCOc1ccc(/C(C)=N/NC(N)=S)cc1`, for which the result was inactive. A word on the EC50: it is the midpoint of the concentration-response curve. One may read the IC50 as the point on the concentration scale where inhibition reaches its midpoint. Turning to `CCOc1ccc(NC(=O)CCC(=O)NN)cc1`, the EC50 is more than 724 µM and the concentration for half-maximal inhibition (IC50) is 603 µM. The matching figures for `Oc1ccc(C=NCC2CCCN3CCCCC23)cc1` (configuration not stated): more than 200 µM and 33.1 µM.

In the case of `O=c1[nH]nc(Cc2ccc(Cl)cc2)n1Nc1ccccc1`, the EC50 was more than 200 µM and the half-inhibitory concentration (IC50) is more than 200 µM. As to `O=C(c1cc(O)c(O)c(O)c1)c1ccc(O)c(O)c1O`, the EC50 is more than 200 µM and the half-inhibitory concentration (IC50) is 3.98 µM. The matching figures for `Nc1ccc(-c2cc3ccccc3[nH]2)cc1`: more than 148 µM and 117 µM. Take `CCc1cc(-c2ccc(OC)cc2)c(C#N)c(=S)n1C1OC(CO)C(O)C(O)C1O` (configuration not stated): the EC50 is more than 200 µM and the IC50 was 126 µM.

Take `CC(OC(C)(C)C)C(NC(=O)C(CCCCNC(=O)OC(C)(C)C)NC(=O)C(Cc1c[nH]c2ccccc12)NC(=O)C(N)Cc1ccccc1)C(=O)NC(Cc1ccccc1)C(=O)N[C@@H]1CCC[C@@H]1C(=O)O` (some centres not stated) (H-[ξF][ξW][ξK](Boc)[ξT](tBu)[ξF]-X18): the outcome was inactive. Regarding `Cc1ccc(N2C(=O)/C(=C/c3ccc(N(CCC#N)CCC#N)cc3C)N=C2c2cc([N+](=O)[O-])ccc2Cl)cc1`, the outcome was inactive. With `NC1(C(=O)N2CCCC2C(=O)O)CCCC1` (configuration not stated) (HELM PEPTIDE1{[NC1(C(=O)[*:2])CCCC1].[O=C(O)C1CCCN1[*:1]]}$$$$V2.0), the EC50 is more than 200 µM and the IC50 was more than 200 µM. As for `Cc1nc(C2CCC3C4CCC5=CC(=O)CCC5(C)C4CCC23C)co1` (configuration not stated), the outcome was inactive. Regarding `O=S(=O)(O)c1cc(N=Nc2cc(S(=O)(=O)O)c3cccnc3c2O)ccc1/C=C/c1ccc(N=Nc2cc(S(=O)(=O)O)c3cccnc3c2O)cc1S(=O)(=O)O.[Na+].[Zn+2]`, the EC50 was 1.95 µM and the IC50 is 14.1 µM.

As to `CC(=O)Nn1cnc(C(=N)C#N)c1N`, the EC50 is more than 200 µM and the IC50 was more than 200 µM. Take `O=C(NCCCCNCCCNC(=O)OCc1ccccc1)OCc1ccccc1`: the EC50 is more than 200 µM and the IC50 came out at 33.1 µM. On to `O=c1cc[nH]cc1-c1c[nH]ccc1=O`, for which the result was inactive.

Consider `NCCN(CCN)CCN`, for which the EC50 was more than 151 µM and the IC50 is more than 151 µM.

In the case of `OC1c2ccccc2CCC1C(O)(C(F)(F)F)C(F)(F)F` (configuration not stated), the EC50 was more than 200 µM and the IC50 came out at 85.1 µM. Turning to `CCCNC(=S)N/N=C(\C)c1ccc(S(=O)(=O)N(C)c2ccccc2)cc1`, the EC50 was more than 200 µM and the IC50 is more than 200 µM. As for `CC(C)(C)NC(NC(C)(C)C)=C(/C=C(/Cl)[N+](=O)[O-])[N+](=O)[O-]`, the EC50 was more than 200 µM and the IC50 came to 162 µM. The matching figures for `CCCOC(=O)NC(C)C(=O)NC(CCC(=O)NC(CCCC(N)C(=O)O)C(=O)NC(C)C(=O)O)C(=O)O` (configuration not stated): more than 50.1 µM and more than 50.1 µM. The matching figures for `NC1=NC(=O)C(CC(=O)c2ccc(Cl)cc2)S1` (configuration not stated): more than 200 µM and more than 200 µM.

Consider `COC1/C=C/OC2(C)Oc3c(C)c(O)c4c(O)c(cc(OCC(=O)N5C(C)CCC5C)c4c3C2=O)NC(=O)/C(C)=C/C=C/C(C)C(O)C(C)C(O)C(C)C(OC(C)=O)C1C` (configuration not stated), for which the EC50 was more than 200 µM and the 50% inhibitory concentration (IC50) worked out at 43.7 µM. The matching figures for `O=C1Nc2c(ccc(Cl)c2I)C1=O`: more than 162 µM and 30.9 µM. The matching figures for `O=S(=O)(O)C(O)C(F)(F)C(F)(F)C(F)(F)C(F)(F)C(O)S(=O)(=O)O` (configuration not stated): more than 200 µM and 155 µM. The matching figures for `N#CCCN(CCC#N)c1ccc(/C=C2\N=C(CN3C(=O)c4ccccc4C3=O)OC2=O)cc1`: more than 79.4 µM and more than 79.4 µM. As to `CC1OCC2OC(C)OC(C3C4=C(CC(C)(C)CC4=O)OC4=C3C(=O)CC(C)(C)C4)C2O1` (configuration not stated), the EC50 is more than 562 µM and the IC50 stood at 550 µM. Take `CCOP(=O)(OCC)/C(=C\n1c(=S)[nH]c2cc(C)ccc21)C(=O)OC`: the EC50 was more than 200 µM and the IC50 is more than 200 µM.

For the compound `Cc1c2c(C#N)nccc2c(C)c2c1c1ccccc1n2Cc1ccccc1`, the outcome was inactive. As for `CC(=O)SC1CC(=O)OC1=O` (configuration not stated), the EC50 is more than 200 µM and the IC50 is more than 200 µM.

Turning to `Cc1cccc(NC(=S)Nc2ccc([N+](=O)[O-])cc2)n1`, the EC50 was more than 200 µM and the IC50 was more than 200 µM. Regarding `CCOC(=O)CC1C(C(=O)OCC)=Cn2c([nH]c3cccc4cccc2c43)=C1C(=O)OCC` (configuration not stated), the EC50 is more than 200 µM and the IC50 was 30.9 µM. On to `COC(C(=O)C(O)C(C)O)C1Cc2cc3cc(OC4CC(OC5CC(O)C(O)C(C)O5)C(O)C(C)O4)c(C)c(O)c3c(O)c2C(=O)C1OC1CC(OC2CC(O)C(OC3CC(C)(O)C(O)C(C)O3)C(C)O2)C(O)C(C)O1` (configuration not stated), for which the outcome was inactive.

Take `O=c1c(Nc2ccccc2)cn(CCOc2ccccc2)c(=O)n1CCOc1ccccc1`: the EC50 is more than 200 µM and the IC50 is more than 200 µM.

`Cc1ccc(C2(C)NC(=S)N(NC(N)=S)C2=S)cc1` (configuration not stated): the EC50 is more than 32.4 µM and the IC50 was more than 32.4 µM. Consider `Cc1coc2c1C(=O)C(=O)c1c-2ccc2c1CCCC2(C)C`, for which the EC50 is more than 200 µM and the IC50 was found to be 25.7 µM. The matching figures for `N#CC(C(=O)/C(=N\NC(N)=O)C(C#N)c1ccccc1)c1ccccc1` (configuration not stated): more than 724 µM and more than 724 µM.

As for `CCCCCCCCCCCCN(CCCCCCCCCCCC)CC(=O)Nc1ccc(S(=O)(=O)c2ccc(NC(=O)CN(CCCCCCCCCCCC)CCCCCCCCCCCC)cc2)cc1`, the EC50 is more than 50.1 µM and the IC50 was 2.57 µM. The matching figures for `COC(=O)Cc1nc2ccccc2o1`: more than 1290 µM and 33.9 µM. As for `O=C(O)CCC1(Br)CCCCC(Br)C1=O` (configuration not stated), the EC50 is more than 724 µM and the IC50 stood at 245 µM. The matching figures for `CCN(CC)Cc1cc2[nH]c3c4ccc(Cl)cc4ncc3c2cc1OC` (tested in a mixture with another compound): more than 100 µM and 0.457 µM. The matching figures for `CCOC(=O)C(NC(=O)CC)(C(F)(F)F)P(=O)(OCC)OCC` (configuration not stated): more than 200 µM and more than 200 µM.

For the compound `N#CC1(O)Cc2ccccc2C1`, the EC50 was more than 200 µM and the IC50 was more than 200 µM. For `CC(=C/c1ccccc1)/C=C1/NC(=S)N(/C=C2\C(=O)Oc3ccccc3C2=O)C1=O`, the EC50 is more than 200 µM and the IC50 is more than 200 µM. As to `O=C(Nc1ccccc1)Oc1ccccc1C1CCCCC1`, the result was inactive. Consider `COc1cc2c3c(c1)nnn3C(=O)CS2`, for which the EC50 was more than 200 µM and the IC50 is more than 200 µM. With `CCNC(=S)N/N=C/c1ccccn1`, the EC50 is more than 200 µM and the IC50 turned out to be 0.851 µM. As to `COc1nc(N)nc2c1CSc1ccccc1-2`, the EC50 was more than 77.6 µM and the IC50 was more than 77.6 µM. Regarding `COc1ccccc1C1=NC(C)(C)CO1`, the EC50 was more than 1230 µM and the IC50 was more than 1230 µM.

For the compound `O=S(=O)(F)c1cccc(Cl)c1C[P+](c1ccccc1)(c1ccccc1)c1ccccc1`, the EC50 was more than 200 µM and the IC50 stood at 25.7 µM.

For `CCOc1ccc(N=O)c(O)c1`, the EC50 is more than 200 µM and the IC50 stood at 3.98 µM. `COc1ccc(S(=O)(=O)Nc2ccccc2C(=O)O)cc1`: the outcome was inactive.

Take `Clc1ccc(NCc2nnc(CCCCCCCCc3nnc(CNc4ccc(Cl)cc4)o3)o2)cc1`: the EC50 is more than 200 µM and the IC50 is more than 200 µM.

As to `CN1CN(c2ccccc2)C2(CCNCC2)C1=O`, the EC50 is more than 200 µM and the IC50 was more than 200 µM. Regarding `CC(C)(NC(=O)OCc1ccccc1)C(=O)NC(Cc1ccccc1)C(=O)O` (configuration not stated) (HELM PEPTIDE1{[O=C(OCc1ccccc1)[*:2]].[Aib].[O=C(O)C(Cc1ccccc1)N[*:1]]}$$$$V2.0), the EC50 was more than 200 µM and the IC50 is more than 200 µM. In the case of `CCOC(=O)c1ccc(-c2cccs2)n1C`, the EC50 is more than 200 µM and the IC50 is 97.7 µM.

Consider `COc1ccc(C2S/C(=C\c3cccc(OC)c3)C(=O)N2NC(=O)Cc2ccccc2)cc1` (configuration not stated), for which the EC50 is more than 107 µM and the IC50 is more than 107 µM. In the case of `CCOC(=O)c1ccc(CS(=O)(=O)c2ccc(OC)cc2)c([N+](=O)[O-])c1`, the EC50 was more than 95.5 µM and the 50% inhibitory concentration (IC50) was more than 95.5 µM. Regarding `O=C(N/N=C1\CCc2ccccc2C1)N/N=C1\CCc2ccccc2C1`, the EC50 is more than 200 µM and the IC50 amounted to 51.3 µM.

With `Cc1ccccc1NC(=S)Nc1ccccn1`, the EC50 was more than 200 µM and the concentration for half-maximal inhibition (IC50) is 95.5 µM. The matching figures for `Cc1ccnc(NC(=S)Nc2cc(C)ccn2)c1`: more than 200 µM and 135 µM. The matching figures for `C[Si](C)(C)CCOCN(C(=O)C1=CCC2(CC1)OCCO2)c1ccccc1I`: more than 200 µM and 12.9 µM.

For the compound `O=c1cc/c(=N/O)c(=O)/c1=N\O`, the EC50 was 17.4 µM and the IC50 is 151 µM. For `O=C(CN(C(=O)OC12CC3CC(CC(C3)C1)C2)C(=O)OC12CC3CC(CC(C3)C1)C2)Oc1ccc([N+](=O)[O-])cc1`, the EC50 is more than 200 µM and the IC50 was determined as 9.77 µM. The matching figures for `CN(C)/C=C/c1nnnn1-c1ccc(I)cc1`: more than 200 µM and 33.1 µM. The matching figures for `COC1=CC2=CCC3C(CC[C@@]4(C)C3CC[C@@H]4C(C)=O)[C@@]2(C)CC1` (some centres not stated): more than 200 µM and 74.1 µM. On to `CC(Sc1ccccc1)C(=O)N1CCCC1` (configuration not stated), for which the EC50 is more than 100 µM and the 50% inhibitory concentration (IC50) was more than 100 µM. For the compound `Nc1cnn2nnnc2c1Cl`, the EC50 is more than 200 µM and the IC50 was more than 200 µM. For the compound `COc1ccc(Nc2cnc3cc(N)ccc3n2)cc1OC`, the EC50 is more than 603 µM and the IC50 was determined as 42.7 µM. Regarding `CCn1c2ccccc2c(=O)c2c(OC)ccc(OC)c21`, the outcome was inactive.

With `O=C(CCC(C(=O)OCc1ccccc1)C(=O)OCc1ccccc1)Nc1ccc(OCc2ccccc2)cc1`, the EC50 was more than 200 µM and the concentration for half-maximal inhibition (IC50) was determined as 107 µM.

Regarding `Oc1cccc2ccc(Br)nc12`, the EC50 is more than 200 µM and the IC50 was found to be 178 µM.

(Values after PubChem BioAssay AID179 (DTP/NCI, 2004).)
